Assay results reported in ChEMBL document CHEMBL1201862, “PubChem BioAssay data set” (2004).
Calls of active or inactive are those of the source.

Experiments:
[1] = target: T1, Leucine aminopeptidase (Plasmodium falciparum 3D7, UniProt Q8IL11); assay: P. falciparum M17LAP inhibitors, primary screen, biochemical, fluorogenic H-Leu-NHMec substrate, 1536-well (AID 1619); assay type: functional
T1 sequence (Q8IL11 whole entry): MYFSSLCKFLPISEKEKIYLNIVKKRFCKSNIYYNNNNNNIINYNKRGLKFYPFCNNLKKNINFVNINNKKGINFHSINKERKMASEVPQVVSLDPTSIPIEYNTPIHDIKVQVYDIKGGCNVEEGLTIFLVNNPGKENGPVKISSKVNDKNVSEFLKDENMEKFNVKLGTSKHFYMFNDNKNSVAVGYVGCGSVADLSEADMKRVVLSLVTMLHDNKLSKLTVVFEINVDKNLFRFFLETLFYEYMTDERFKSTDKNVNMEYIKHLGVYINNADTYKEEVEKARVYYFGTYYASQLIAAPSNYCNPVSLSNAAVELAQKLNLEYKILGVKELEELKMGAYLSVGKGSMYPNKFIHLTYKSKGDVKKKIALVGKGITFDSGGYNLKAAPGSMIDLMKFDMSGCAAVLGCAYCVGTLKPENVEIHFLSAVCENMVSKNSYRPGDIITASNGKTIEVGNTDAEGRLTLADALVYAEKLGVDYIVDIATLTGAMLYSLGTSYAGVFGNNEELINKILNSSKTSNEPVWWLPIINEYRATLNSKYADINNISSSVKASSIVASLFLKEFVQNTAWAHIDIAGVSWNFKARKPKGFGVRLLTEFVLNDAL

[2] = target: T2, Aspartyl aminopeptidase (Plasmodium falciparum 3D7, UniProt Q8I2J3); assay: Counterscreen for inhibitors of M1 and M17 aminopeptidases: QFRET-based biochemical high throughput dose response assay for inhibitors of the Plasmodium falciparum M18 Aspartyl Aminopeptidase (PFM18AAP). [Related PubChem assays: 1619 (Screening assay (M17LAP inhibitors).), 1445 (Screening assay (M1AAP inhibitors).)]
T2 sequence (Q8I2J3 whole entry): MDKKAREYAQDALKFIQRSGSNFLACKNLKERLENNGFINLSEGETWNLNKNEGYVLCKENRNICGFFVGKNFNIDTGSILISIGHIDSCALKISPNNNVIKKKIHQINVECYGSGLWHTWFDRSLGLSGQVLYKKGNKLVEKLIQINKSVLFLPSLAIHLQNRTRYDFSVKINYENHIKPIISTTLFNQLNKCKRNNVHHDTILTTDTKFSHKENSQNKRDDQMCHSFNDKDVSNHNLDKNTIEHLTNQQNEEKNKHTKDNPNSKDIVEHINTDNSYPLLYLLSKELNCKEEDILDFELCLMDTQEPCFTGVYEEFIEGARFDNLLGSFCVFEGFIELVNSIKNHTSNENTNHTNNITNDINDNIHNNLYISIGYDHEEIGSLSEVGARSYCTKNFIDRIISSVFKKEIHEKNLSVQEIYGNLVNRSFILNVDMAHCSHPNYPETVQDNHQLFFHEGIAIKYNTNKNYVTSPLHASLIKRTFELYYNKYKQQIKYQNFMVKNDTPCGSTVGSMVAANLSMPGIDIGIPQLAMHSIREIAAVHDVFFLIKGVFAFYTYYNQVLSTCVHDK

[3] = target: Procathepsin L (Homo sapiens, UniProt P07711); assay: CTSL1 protease inhibition – biochemical, QFRET, 1536-well, counter-screen for M1/M17 aminopeptidase inhibitor project, dose response (AID 2214)
Sequence of Procathepsin L (P07711 whole entry): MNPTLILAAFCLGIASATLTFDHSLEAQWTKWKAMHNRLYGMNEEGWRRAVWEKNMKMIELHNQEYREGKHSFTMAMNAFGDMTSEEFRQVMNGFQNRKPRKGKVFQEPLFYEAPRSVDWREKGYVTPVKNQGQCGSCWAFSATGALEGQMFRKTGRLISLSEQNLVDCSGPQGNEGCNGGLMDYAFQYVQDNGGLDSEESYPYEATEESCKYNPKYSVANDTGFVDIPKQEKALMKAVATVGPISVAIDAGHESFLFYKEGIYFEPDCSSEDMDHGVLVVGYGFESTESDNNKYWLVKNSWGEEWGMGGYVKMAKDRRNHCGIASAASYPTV

[4] = Luminescence Cell-Based Dose Response to Identify Activators of 5'UTR Stem-Loop Driven Prion Protein mRNA Translation in H4-C Neuroglioblastoma Cells. [Related pubchem assays: 1829 (Project Summary), 1814 (Primary HTS)]; assay type: functional
[5] = Luminescence Cell-Based Dose Response to Identify Activators of Luciferase Translation or Activity in H4-C Neuroglioblastoma Cells. [Related pubchem assays: 1829 (Project Summary), 1814 (Primary HTS)]; assay type: functional
[6] = Luminescence Cell-Based Dose Confirmation to Identify Activators of 5'UTR Stem-Loop Driven Alpha-Synuclein mRNA Translation in H4 Neuroglioblastoma Cells. [Related pubchem assays: 1829 (Project Summary), 1814 (Primary HTS)]; assay type: functional
[7] = Luminescence Cell-Based Dose Response HTS to Identify Activators of Luciferase Translation or Activity in H4 […] Cells. [Related pubchem assays: 1829 (Project Summary), 1814 (Primary HTS)]; assay type: functional
[8] = cells
[9] = NIH3T3 cell viability loss – ATP luminescence, mouse fibroblasts, counter-screen, dose response (AID 2010); assay type: functional, cell-based;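 also: cells exposed to compound for about 90 hours before reading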
[10] = Trypanosoma cruzi growth suppression in host cells – NIH3T3 host cells, beta-gal luminescence, confirmation (AID 2044); assay type: functional, cell-based;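 also: intracellular parasites grown in NIH/3T3 mouse fibroblasts as host cells; luminescent beta-galactosidase reporter signal from transgenic T. cruzi replicating inside host cells; inhibitors lower the luminescence signal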
[11] = general mammalian cell viability loss – inhibitor set, cherry-pick, set 2, cytotoxicity control for miR-122 modulator project, dose response (AID 720697); assay type: functional, cell-based
[12] = viability loss in A549 lung cells – cell-based, 24 h, CellTiter-Glo luminescence, cherry-picks, cytotoxicity control, dose response (AID 1053115); assay type: functional; conditions: A549, 24 h
[13] = general mammalian cell viability loss – activator set, cherry-pick, cytotoxicity control for miR-122 modulator project, dose response (AID 720690); assay type: functional, cell-based;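 also: HEK293T human cells scored for general mammalian cytotoxicity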
[14] = target: Paired box protein Pax-8 (Homo sapiens, UniProt Q06710); assay: PAX8 transcriptional activity inhibition in RMG-I – RMG-I cells, luciferase, cherry-pick, dose response (AID 687027); assay type: functional, cell-based;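 also: luciferase reporter driven by Pax8 target thyroperoxidase promoter measured by SteadyGlo luminescence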
Sequence of Paired box protein Pax-8 (Q06710 whole entry): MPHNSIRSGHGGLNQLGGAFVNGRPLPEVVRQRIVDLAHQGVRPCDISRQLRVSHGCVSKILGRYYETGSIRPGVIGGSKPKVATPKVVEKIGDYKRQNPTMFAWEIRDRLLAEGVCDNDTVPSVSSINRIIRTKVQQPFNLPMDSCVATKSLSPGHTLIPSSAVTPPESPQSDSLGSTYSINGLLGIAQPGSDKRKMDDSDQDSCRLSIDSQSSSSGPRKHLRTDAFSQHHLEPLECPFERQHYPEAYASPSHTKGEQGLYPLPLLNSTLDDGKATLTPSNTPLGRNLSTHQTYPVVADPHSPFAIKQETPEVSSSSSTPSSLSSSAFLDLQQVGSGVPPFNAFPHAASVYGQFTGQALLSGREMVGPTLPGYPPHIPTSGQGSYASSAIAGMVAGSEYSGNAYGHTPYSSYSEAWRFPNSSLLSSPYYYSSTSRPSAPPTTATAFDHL

[15] = activation of miR-122 Renilla sensor silencing – cell-based, Huh7 psiCHECK-miR122, Renilla luciferase, cherry-picked, dose response (AID 651956); assay type: functional;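 also: huh7 hepatoma cells stably carrying a psiCHECK-2 miR-122 sensor plasmid; renilla luciferase signal reporting endogenous miR-122 activity after 48 h compound exposure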
[16] = lung carcinoma cell viability loss – CellTiter-Glo luminescence, dry powder, set 17, dose response (AID 1117284); assay type: functional, cell-based; conditions: A549
[17] = viability loss in Vero cells – cytotoxicity control for Vif-APOBEC3G degradation inhibitor project, dose response (AID 1117358); assay type: functional; conditions: Vero
[18] = toxicity to human hepatoma HepG2 cells – cell-based, cherry-picked samples, cytotoxicity control, dose response (AID 1159577); assay type: functional
[19] = P. falciparum Dd2 growth inhibitors, dose response, SYBR Green, cherry-picked samples (AID 1159567); assay type: functional, cell-based
[20] = Dd2 parasite growth inhibition in erythrocytes – SYBR Green, dry powder samples, set 9, dose response (AID 1159568); assay type: functional, cell-based
[21] = toxicity to human HepG2 hepatoma cells – cell-based, plate reader, dry powder samples, cytotoxicity control, dose response (AID 1159569); assay type: functional;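 also: inhibitor potency with signal falling toward the positive control level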
[22] = growth inhibition of PfATP4-mutant resistant parasites – NITD609-resistant line, SYBR Green, dry powder, dose response (AID 1159571); assay type: functional, cell-based;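 also: parasites synchronized at ring stage by sorbitol before testing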
[23] = Dd2 malaria parasite growth inhibition potency – SYBR Green, dry powder samples, dose response (AID 1159566); assay type: functional, cell-based;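 also: potency for growth inhibition with lower SYBR green DNA signal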
[24] = HIV-1 AD8 envelope cell-cell fusion blockers – cherry-pick, dose response (AID 652062); assay type: functional, cell-based;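 also: luciferase signal from cell-cell fusion driven by HIV-1 clade B AD8 Env; potency is for inhibitors of fusion seen as a drop in luminescence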
[25] = growth inhibition of yeast DHODH-expressing 3D7 parasites – SYBR Green, dry powder samples, dose response (AID 1159570); assay type: functional, cell-based;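 also: parasite growth measured after 72 hours of compound exposure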

## Cc1cccc(NC(=O)CSc2nc(O)c(C#N)c(-c3ccccc3)n2)c1C
[1]
  IC50: 5.37 µM (active)
[2]
  IC50: > 73.5 µM (not active)
[3]
  IC50: > 59.6 µM (not active)

## CCOC(=O)c1c(C)[nH]c(N=Nc2ccc(C)cc2)c1C
[4]
  EC50: 0.305 µM (active)
[5]
  EC50: 0.3 µM (active)
[6]
  EC50: 0.387 µM (active)
[7]
  EC50: < 0.1 µM (active)

## O=C(C1CCCN(Cc2ccc(Cl)cc2)C1)N1CCCCC1 (stereo unspecified)
[8]
  EC50: 0.055 µM (active)
[9]
  EC50: > 30 µM (not active)
[10]
  EC50: < 0.1 µM (active)

## C[C@H](O)C#Cc1ccc2c(c1)O[C@H](CN(C)Cc1ccc(-c3ccccc3)cc1)[C@@H](C)CN([C@H](C)CO)S2(=O)=O
[11]
  AC50: 7.51 µM (active)
[12]
  AC50: 59.6 µM (active)
[13]
  AC50: 16.7 µM (active)
[14]
  AC50: 15.9 µM (active)
[15]
  AC50: 6.13 µM (active)
[16]
  AC50: 35.1 µM (active)

## CCOc1c(OC)cccc1C1CC(=O)Nc2cc3c(cc21)OCCO3 (stereo unspecified)
[17]
  CC50: > 40 µM (active)

## COc1ccc2c3c(n(C)c2c1)[C@@H](CO)NCC31CN(Cc2ccc(-c3ccccn3)cc2)C1
[18]
  AC50: 20.4 µM (active)
[19]
  AC50: 1.66 µM (active)

## CCCNC(=O)N1[C@H](C#N)[C@H](c2ccc(-c3cccc(OC)c3)cc2)[C@@H]1CO
[20]
  AC50: 0.171 µM (active)
[21]
  AC50: 90.7 µM (active)
[22]
  AC50: 0.278 µM (active)
[23]
  AC50: 0.168 µM (active)
[19]
  AC50: 0.56 µM (active)
[24]
  AC50: 25.5 µM (active)
[25]
  AC50: 1.4 µM (active)
